Laboratory results as given in US6992079B2, “Substituted 11-phenyl-dibenzazepine compounds useful for the treatment or prevention of diseases characterized by abnormal cell proliferation” (President Fellows of Harvard College, priority 1997, dated 2006).

Key:
A549 = assay: SRB antiproliferative assay; format: cell-based; conditions: Homo sapiens, A549, A549 (Lung), 5% FCS/5 day incubation
Source text: (§1) The cells were passaged using Trypsin (Gibco).

HEPG2 = assay: SRB antiproliferative assay; format: cell-based; conditions: Homo sapiens, HepG2, HEPG2 (Hepatocel), 5% FCS/5 day incubation
Source text: as §1

HT29 = assay: SRB antiproliferative assay; format: cell-based; conditions: Homo sapiens, HT-29, HT29 (Colon), 5% FCS/5 day incubation
Source text: as §1

HeLa = assay: SRB antiproliferative assay; format: cell-based; conditions: Homo sapiens, HeLa (Cervical), 5% FCS/5 day incubation
Source text: as §1

MCF7 = assay: SRB antiproliferative assay; format: cell-based; conditions: Homo sapiens, MCF7, MCF7 (Breast), 5% FCS/5 day incubation
Source text: as §1

MDA-MB-23 = assay: SRB antiproliferative assay; format: cell-based; conditions: Homo sapiens; MDA-MB-23 (Breast); SRB; 5% FCS/5 day incubation; read-out: IC50
Source text: as §1

MMRU = assay: SRB antiproliferative assay; format: cell-based; conditions: Homo sapiens, MMRU (Melanoma), 5% FCS/5 day incubation
Source text: as §1

U118MG = assay: SRB antiproliferative assay; format: cell-based; conditions: Homo sapiens, U-118-MG, U118MG (CNS), 5% FCS/5 day incubation
Source text: as §1

[1] = Preliminary toxicology, subcutaneous injection for 14 days; format: in vivo, CD-1 female mice; conditions: CD-1 female mice; 80 mg/kg/day s.c. 14 days
Protocol: The toxicological effects of CLT, and compounds 28, 30 and 31 were tested in CD-1 female mice. A dose of 80 mg/kg/day was given to each mouse via subcutaneous injection for a period of 14 days. Preliminary toxicological data was determined by measuring body weight, gross pathology of organs blood chemistry and histology. The vehicle used was DMF 12%+2% Tween 20 88%.

COLO 205 = assay: In-Vitro Testing SRB panel: Colon Cancer; format: cell-based
HCT-15 = assay: In-Vitro Testing SRB panel: Colon Cancer; format: cell-based
SF-539 = assay: In-Vitro Testing SRB panel: CNS Cancer; format: cell-based
SNB-19 = assay: In-Vitro Testing SRB panel: CNS Cancer; format: cell-based
U251 = assay: In-Vitro Testing SRB panel: CNS Cancer; format: cell-based
UACC-62 = assay: In-Vitro Testing SRB panel: Melanoma; format: cell-based
786-0 = assay: In-Vitro Testing SRB panel: Renal Cancer; format: cell-based
TK-10 = assay: In-Vitro Testing SRB panel: Renal Cancer; format: cell-based
MC-F7 = assay: In-Vitro Testing SRB panel: Breast Cancer; format: cell-based
OVCAR-3 = assay: In-Vitro Testing SRB panel: Ovarian Cancer

COc1ccc2c(c1)CN(C(=O)c1ccc([N+](=O)[O-])cc1)c1ccc(Cl)cc1C2c1ccccc1Cl (stereo not drawn) [Compound 30]
IC50 (A549): 1.5 µM | IC50 (HEPG2): 0.9 µM | IC50 (HT29): 0.6 µM | IC50 (HeLa): 0.5 µM | IC50 (MCF7): 1.3 µM | IC50 (MDA-MB-23): 0.9 µM | IC50 (MMRU): 0.5 µM | IC50 (U118MG): 0.8 µM | Body Weight Change [1]: 108% | Liver Weight [1]: 1.52 ± 0.23 g | RBC [1]: 8.2 ± 0.2 10^6/mm^3 | WBC [1]: 6.4 ± 1.7 10^3/mm^3 | WBC, RBC, BUN and creatine levels [1]: no differences were found | TGI (COLO 205; COLO 205): >1.00E−04 Molar | Percent Growth (COLO 205; COLO 205, Log10 concentration −4.0 Molar): 43% | Percent Growth (COLO 205; COLO 205, Log10 concentration −5.0 Molar): 46% | Percent Growth (COLO 205; COLO 205, Log10 concentration −6.0 Molar): 68% | Percent Growth (COLO 205; COLO 205, Log10 concentration −7.0 Molar): 87% | Percent Growth (COLO 205; COLO 205, Log10 concentration −8.0 Molar): 93% | GI50 (COLO 205; Homo sapiens, COLO 205): 6.64 µM | CC50 (COLO 205; Homo sapiens, COLO 205, read-out: LC50 (the source's name)): > 100 µM | TGI (HCT-15; HCT-15): >1.00E−04 Molar | Percent Growth (HCT-15; HCT-15, Log10 concentration −4.0 Molar): 39% | Percent Growth (HCT-15; HCT-15, Log10 concentration −5.0 Molar): 40% | Percent Growth (HCT-15; HCT-15, Log10 concentration −6.0 Molar): 77% | Percent Growth (HCT-15; HCT-15, Log10 concentration −7.0 Molar): 98% | Percent Growth (HCT-15; HCT-15, Log10 concentration −8.0 Molar): 109% | GI50 (HCT-15; Homo sapiens, HCT-15): 5.28 µM | CC50 (HCT-15; Homo sapiens, HCT-15, read-out: LC50 (the source's name)): > 100 µM | GI50 (SF-539; Homo sapiens, SF-539): 3.87 µM | CC50 (SF-539; Homo sapiens, SF-539, read-out: LC50 (the source's name)): > 100 µM | TGI (SF-539; SF-539): >1.00E−04 Molar | Percent Growth (SF-539; SF-539, Log10 concentration −4.0 Molar): 20% | Percent Growth (SF-539; SF-539, Log10 concentration −5.0 Molar): 33% | Percent Growth (SF-539; SF-539, Log10 concentration −6.0 Molar): 75% | Percent Growth (SF-539; SF-539, Log10 concentration −7.0 Molar): 92% | Percent Growth (SF-539; SF-539, Log10 concentration −8.0 Molar): 93% | GI50 (SNB-19; Homo sapiens, SNB-19): 8.22 µM | CC50 (SNB-19; Homo sapiens, SNB-19, read-out: LC50 (the source's name)): > 100 µM | TGI (SNB-19; SNB-19): >1.00E−04 Molar | Percent Growth (SNB-19; SNB-19, Log10 concentration −4.0 Molar): 37% | Percent Growth (SNB-19; SNB-19, Log10 concentration −5.0 Molar): 47% | Percent Growth (SNB-19; SNB-19, Log10 concentration −6.0 Molar): 86% | Percent Growth (SNB-19; SNB-19, Log10 concentration −7.0 Molar): 90% | Percent Growth (SNB-19; SNB-19, Log10 concentration −8.0 Molar): 95% | GI50 (U251; Homo sapiens, U-251): 5.1 µM | CC50 (U251; Homo sapiens, U-251, U251, read-out: LC50 (the source's name)): > 100 µM | TGI (U251; U251): >1.00E−04 Molar | Percent Growth (U251; U251, Log10 concentration −4.0 Molar): 37% | Percent Growth (U251; U251, Log10 concentration −5.0 Molar): 37% | Percent Growth (U251; U251, Log10 concentration −6.0 Molar): 81% | Percent Growth (U251; U251, Log10 concentration −7.0 Molar): 103% | Percent Growth (U251; U251, Log10 concentration −8.0 Molar): 94% | GI50 (UACC-62; Homo sapiens, UACC-62): > 100 µM | CC50 (UACC-62; Homo sapiens, UACC-62, read-out: LC50 (the source's name)): > 100 µM | TGI (UACC-62; UACC-62): >1.00E−04 Molar | Percent Growth (UACC-62; UACC-62, Log10 concentration −4.0 Molar): 56% | Percent Growth (UACC-62; UACC-62, Log10 concentration −5.0 Molar): 52% | Percent Growth (UACC-62; UACC-62, Log10 concentration −6.0 Molar): 58% | Percent Growth (UACC-62; UACC-62, Log10 concentration −7.0 Molar): 93% | Percent Growth (UACC-62; UACC-62, Log10 concentration −8.0 Molar): 97% | TGI (786-0; 786-0): >1.00E−04 Molar | Percent Growth (786-0; 786-0, Log10 concentration −4.0 Molar): 28% | Percent Growth (786-0; 786-0, Log10 concentration −5.0 Molar): 11% | Percent Growth (786-0; 786-0, Log10 concentration −6.0 Molar): 92% | Percent Growth (786-0; 786-0, Log10 concentration −7.0 Molar): 98% | Percent Growth (786-0; 786-0, Log10 concentration −8.0 Molar): 98% | GI50 (786-0; Homo sapiens, 786-0): 3.28 µM | CC50 (786-0; Homo sapiens, 786-0, read-out: LC50 (the source's name)): > 100 µM | GI50 (TK-10; Homo sapiens, TK-10): 27 µM | CC50 (TK-10; Homo sapiens, TK-10, read-out: LC50 (the source's name)): > 100 µM | TGI (TK-10; TK-10): >1.00E−04 Molar | Percent Growth (TK-10; TK-10, Log10 concentration −4.0 Molar): 41% | Percent Growth (TK-10; TK-10, Log10 concentration −5.0 Molar): 57% | Percent Growth (TK-10; TK-10, Log10 concentration −6.0 Molar): 93% | Percent Growth (TK-10; TK-10, Log10 concentration −7.0 Molar): 101% | Percent Growth (TK-10; TK-10, Log10 concentration −8.0 Molar): 100% | GI50 (MC-F7; Homo sapiens, MCF7): 5.38 µM | CC50 (MC-F7; Homo sapiens, MCF7, MC-F7, read-out: LC50 (the source's name)): > 100 µM | TGI (MC-F7; MC-F7): >1.00E−04 Molar | Percent Growth (MC-F7; MC-F7, Log10 concentration −4.0 Molar): 33% | Percent Growth (MC-F7; MC-F7, Log10 concentration −5.0 Molar): 36% | Percent Growth (MC-F7; MC-F7, Log10 concentration −6.0 Molar): 88% | Percent Growth (MC-F7; MC-F7, Log10 concentration −7.0 Molar): 106% | Percent Growth (MC-F7; MC-F7, Log10 concentration −8.0 Molar): 102% | GI50 (OVCAR-3; Homo sapiens, OVCAR-3): 10.2 µM | CC50 (OVCAR-3; Homo sapiens, OVCAR-3, read-out: LC50): > 100 µM | TGI (OVCAR-3; OVCAR-3): >1.00E−04 Molar | Percent Growth (OVCAR-3; OVCAR-3, Log10 concentration −4.0 Molar): 43% | Percent Growth (OVCAR-3; OVCAR-3, Log10 concentration −5.0 Molar): 50% | Percent Growth (OVCAR-3; OVCAR-3, Log10 concentration −6.0 Molar): 89% | Percent Growth (OVCAR-3; OVCAR-3, Log10 concentration −7.0 Molar): 105% | Percent Growth (OVCAR-3; OVCAR-3, Log10 concentration −8.0 Molar): 95%
